According to patent US6031071A, “Methods of generating novel peptides” (Biophage, Inc., priority 1996, dated 2000):
Entries after “also recorded” stand apart in the source; their conditions may differ.

Experiments:
[1] = molecular target: phage V6 (peptide V6) binding to doxorubicin; assay: Displacement assay: inhibition of V6 phage binding to doxorubicin-BSA coated wells by drugs; details: for IC50: read-out: IC50 for inhibiting the binding of phages V6 to doxorubicin; for blocking/displacement of the interaction of the phage with doxorubicin: result in words
Protocol: Phage V6 (10^10 virions) was preincubated for 1 hr at room temperature in 100 μl of 0.1% BSA/PBS buffer containing different drug concentrations (10^-4 M to 10^-9 M), and aliquots were added to microtiter wells, which were […] with doxorubicin-BSA as previously described in Example II. After a 1-h incubation at room temperature, the wells were washed 12 times with PBS and the remaining bound phages eluted with 50 μl of 0.1 M HCl (pH adjusted to 2.2 with glycine). The phages were quantitated by titration on log phase of E. coli K91Kan cells plated on LB plates with […] tetracycline (Parmley & Smith, Gene, 73: 305-318 (1988)).

[2] = ELISA control empty wells (plastic binding)
Protocol: Phages from the second PEG precipitation (Parmley & Smith, Gene, 73: 305-318 (1988)) were dissolved in 210 μl of 0.15 M NaCl, microfuged for 1 min, precipitated from 200 μl of the supernatant by the addition of 21.2 μl of 1 M acetic acid, and by incubation for 10 min at room temperature and 10 min on ice. (Scott & Smith, Science, 249: 386-390 (1990)). Phages were sedimented (microfuged, 45 min, 4 C.) and dissolved in 60 μl of TBS. Phage concentration was determined as described in Parmley & Smith, Gene, 73: 305-318 (1988). These partially purified phages were subjected to one round of screening, except that the phages were not acid eluted. Instead, blocking solution [250 μl of nonfat dry milk ([…]) in 0,05% TWEEN20 ™/TBS (TWEEN20 ™: Polysorbate 20)] was added to the wells. After a 2-h incubation at room temperature, wells were washed three times in 0.05% TWEEN20 ™/TBS. Rabbit anti-phage fd-ted serum, 100 μl of a 1:1000 dilution (in blocking solution) was added to wells and incubated overnight. Wells were washed seven times in 0.05% TWEEN20 ™/TBS and once with TBS; 100 μl of a peroxidase-conjugated goat anti-rabbit immunoglobulin were then added (Kirkegaard & Perry Labs, Maryland, USA, diluted 1:1000). […] To reveal the reaction, 100 μl of ABTS solution (Kirkegaard & Perry Labs, Maryland, USA) were added, incubated for 30 min at room temperature, and read in a microplate reader. […]

[3] = ELISA of phage binding to immobilized doxo-BSA, detected with polyclonal anti-phage serum; details: result in words
Protocol: In order to characterize the binding of individual clones, four different clones V6, V10, V12 and A4 together with the control phage X1 were analyzed for binding to doxorubicin in an ELISA experiment in which polyclonal anti-phage antibodies were used to detect bound phages. Antisera were raised against fd-Tet phage lacking insertion into pIII. Three rabbits were injected intramuscularly with 0.5 mg of fd-ted phages in Freunds complete adjuvant and then boosted three times with 0.25 mg of fd-ted phages in incomplete adjuvant at 3 weeks intervals. The titer of the antisera was measured with an ELISA using phage immobilized in Maxisorb microtiter wells as described (Motti et al., Gene, 146: 91-198 (1994)). All rabbits produced high titer antisera after the second boost. […]
Phages from the second PEG precipitation (Parmley & Smith, Gene, 73: 305-318 (1988)) were dissolved in 210 μl of 0.15 M NaCl, microfuged for 1 min, precipitated from 200 μl of the supernatant by the addition of 21.2 μl of 1 M acetic acid, and by incubation for 10 min at room temperature and 10 min on ice. […] Phage concentration was determined as described in Parmley & Smith, Gene, 73: 305-318 (1988). […] To reveal the reaction, 100 μl of ABTS solution (Kirkegaard & Perry Labs, Maryland, USA) were added, incubated for 30 min at room temperature, and read in a microplate reader. […]

[4] = phage V6 10^10 virions preincubated 1 hr with drug 10^-4 M to 10^-9 M, doxorubicin-BSA coated wells

Row | Compound | IC50 for inhibiting the binding of phages V6 to doxorubicin [1, 4] | IC50 [1, 4] | blocking/displacement of the interaction of the phage with doxorubicin [1] | binding of phage to plastic [2] | binding of display phage to doxorubicin (ELISA, OD405) [3]
1 | Nc1ccn([C@@H]2O[C@H](CO)[C@@H](O)[C@@H]2O)c(=O)n1 [Ara-C] | essentially inactive | – | – | – | –
2 | COc1cccc2c1C(=O)c1c(O)c3c(c(O)c1C2=O)C[C@@](O)(C(=O)CO)C[C@@H]3O[C@H]1C[C@H](N)[C@H](O)[C@H](C)O1 [doxorubicin] | – | 4.5 nM | could be blocked | – | –
3 | CC[C@]1(O)C[C@@H]2CN(CCc3c([nH]c4ccccc34)[C@@](C(=O)OC)(c3cc4c(cc3OC)N(C)[C@H]3[C@@](O)(C(=O)OC)[C@H](OC(C)=O)[C@]5(CC)C=CCN6CC[C@]43[C@@H]65)C2)C1 [vinblastine] | – | 1.5 nM | displaced; also recorded: could be blocked | – | –
4 | VCDWWGWGIC [phage V6] | – | – | – | only background binding | strong specific binding
